Columns and labels:
blackgrass = assay: Test B pre/postemergence blackgrass; type: in vivo, Alopecurus myosuroides
In short: (§1)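 Test chemicals in a non-phytotoxic solvent mixture with surfactant were sprayed preemergence onto planted seeds and postemergence onto plants 2 to 18 cm tall (1- to 4-leaf stage). After twelve to sixteen days in a greenhouse, injury was visually rated against untreated controls from 0 (no effect) to 10 (complete control).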

giant foxtail = assay: Test B pre/postemergence giant foxtail; type: in vivo, Setaria faberii
In short: as §1

bamyardgrass = assay: Test B flood test barnyardgrass; type: in vivo, Echinochloa crus-galli
In short: (§2)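 Plants were grown to the 2-leaf stage before treatment with test chemical, then held in a greenhouse for twelve to sixteen days. Injury was visually rated against untreated controls on a 0–10 scale, where 0 is no effect and 10 is complete control.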

rice = assay: Test B flood test rice; type: in vivo, Oryza sativa
In short: as §2

crabgrass = assay: Test B pre/postemergence crabgrass; type: in vivo, Digitaria sanguinalis
In short: as §1

wild oat = assay: Test B pre/postemergence wild oat; type: in vivo, Avena fatua
In short: as §1

wheat = assay: Test B pre/postemergence wheat; type: in vivo, Triticum aestivum
In short: as §1

surinam grass = assay: Test B pre/postemergence surinam grass; type: in vivo, Brachiaria decumbens
In short: as §1

purple nutsedge = assay: Test B pre/postemergence purple nutsedge; type: in vivo, Cyperus rotundus
In short: as §1

rape = assay: Test B pre/postemergence rape; type: in vivo, Brassica napus
In short: as §1

corn = assay: Test B pre/postemergence corn; type: in vivo, Zea mays
In short: as §1

sugar beet = assay: Test B pre/postemergence sugar beet; type: in vivo, Beta vulgaris
In short: as §1

pigweed = assay: Test B pre/postemergence pigweed; type: in vivo, Amaranthus retroflexus
In short: as §1

morningglory = assay: Test B pre/postemergence morningglory; type: in vivo, Ipomoea hederacea
In short: as §1

cocklebur = assay: Test B pre/postemergence cocklebur; type: in vivo, Xanthium strumarium
In short: as §1

bedstraw = assay: Test B pre/postemergence bedstraw; type: in vivo, Galium aparine
In short: as §1

[1] = Postemergence, Rate 62 g/ha, scale 0 to 10, 0 is no effect, 10 is complete control
[2] = Postemergence, Rate 250 g/ha, scale 0 to 10, 0 no effect, 10 complete control
[3] = Preemergence, Rate 62 g/ha, scale 0 to 10 (0 no effect, 10 complete control)
[4] = Preemergence, Rate 125 g/ha, scale 0 to 10 (0 no effect, 10 complete control)
[5] = Preemergence, Rate 250 g/ha, scale of 0 to 10 where 0 is no effect and 10 is complete control
[6] = Preemergence, Rate 500 g/ha, scale 0 (no effect) to 10 (complete control)
[7] = Rate 125 g/ha, Postemergence, scale 0 to 10, 0 no effect, 10 complete control
[8] = Rate 500 g/ha, Postemergence, scale 0 to 10, 0 no effect, 10 complete control
[9] = Rate 62 g/ha, headed Pre-emergence (flood test species), scale 0 to 10 (0 no effect, 10 complete control)
[10] = Rate 125 g/ha, Pre-emergence, flood test species, scale 0 to 10 where 0 is no effect and 10 is complete control
[11] = Rate 250 g/ha, headed Pre-emergence (flood test species), scale 0 to 10 (0 no effect, 10 complete control)
[12] = Rate 500 g/ha, headed Pre-emergence (flood test species), scale 0 to 10 (0 no effect, 10 complete control)

Cc1ccccc1-n1c(=O)on(C(=O)N(Cc2ccccc2)C(C)C)c1=O [Compound 72]
Blackgrass plant response rating (blackgrass; [1]): 0
Blackgrass plant response rating (blackgrass; [2]): 0
Blackgrass plant response rating (blackgrass; [3]): 0
Plant response rating, Blackgrass (blackgrass; [4]): 0
Plant response rating, Blackgrass (blackgrass; [5]): 0
Blackgrass plant response rating (blackgrass; [6]): 0
Blackgrass plant response rating (blackgrass; [7]): 0
Blackgrass plant response rating (blackgrass; [8]): 0
Giant foxtail plant response rating (giant foxtail; [1]): 0
Giant foxtail plant response rating (giant foxtail; [2]): 0
Giant foxtail plant response rating (giant foxtail; [3]): 0
Plant response rating, Giant foxtail (giant foxtail; [4]): 0
Plant response rating, Giant foxtail (giant foxtail; [5]): 2
Giant foxtail plant response rating (giant foxtail; [6]): 2
Giant foxtail plant response rating (giant foxtail; [7]): 0
Giant foxtail plant response rating (giant foxtail; [8]): 0
Barnyardgrass plant response rating (bamyardgrass; [9]): 0
Barnyardgrass plant response rating (bamyardgrass; [10]): 0
Barnyardgrass plant response rating (bamyardgrass; [11]): 0
Plant response rating, Barnyardgrass (bamyardgrass; [12]): 0
Rice plant response rating (rice; [9]): 0
Rice plant response rating (rice; [10]): 0
Rice plant response rating (rice; [11]): 0
Plant response rating, Rice (rice; [12]): 0
Crabgrass plant response rating (crabgrass; [1]): 0
Crabgrass plant response rating (crabgrass; [2]): 0
Crabgrass plant response rating (crabgrass; [3]): 0
Plant response rating, Crabgrass (crabgrass; [4]): 0
Plant response rating, Crabgrass (crabgrass; [5]): 0
Crabgrass plant response rating (crabgrass; [6]): 4
Crabgrass plant response rating (crabgrass; [7]): 0
Crabgrass plant response rating (crabgrass; [8]): 0
Wild oats plant response rating (wild oat; [1]): 0
Wild oats plant response rating (wild oat; [2]): 0
Wild oats plant response rating (wild oat; [3]): 0
Plant response rating, Wild oats (wild oat; [4]): 0
Plant response rating, Wild oats (wild oat; [5]): 0
Wild oats plant response rating (wild oat; [6]): 0
Wild oats plant response rating (wild oat; [7]): 0
Wild oats plant response rating (wild oat; [8]): 0
Wheat plant response rating (wheat; [1]): 0
Wheat plant response rating (wheat; [2]): 0
Wheat plant response rating (wheat; [3]): 0
Plant response rating, Wheat (wheat; [4]): 0
Plant response rating, Wheat (wheat; [5]): 0
Wheat plant response rating (wheat; [6]): 0
Wheat plant response rating (wheat; [7]): 0
Wheat plant response rating (wheat; [8]): 0
B. signalgrass plant response rating (surinam grass; [1]): 0
B. signalgrass plant response rating (surinam grass; [2]): 0
B. signalgrass plant response rating (surinam grass; [3]): 0
Plant response rating, B. signalgrass (surinam grass; [4]): 0
Plant response rating, B. signalgrass (surinam grass; [5]): 0
B. signalgrass plant response rating (surinam grass; [6]): 0
B. signalgrass plant response rating (surinam grass; [7]): 0
B. signalgrass plant response rating (surinam grass; Rate 500 g/ha, Postemergence, scale of 0 to 10 where 0 is no effect and 10 is complete control): 0
Nutsedge plant response rating (purple nutsedge; [1]): 0
Nutsedge plant response rating (purple nutsedge; [2]): 0
Nutsedge plant response rating (purple nutsedge; [3]): 0
Plant response rating, Nutsedge (purple nutsedge; [4]): 0
Plant response rating, Nutsedge (purple nutsedge; [5]): 0
Nutsedge plant response rating (purple nutsedge; [6]): 0
Nutsedge plant response rating (purple nutsedge; [7]): 0
Nutsedge plant response rating (purple nutsedge; [8]): 0
Rape plant response rating (rape; [1]): 0
Rape plant response rating (rape; [2]): 0
Rape plant response rating (rape; [3]): 0
Plant response rating, Rape (rape; [4]): 0
Plant response rating, Rape (rape; [5]): 0
Rape plant response rating (rape; [6]): 0
Rape plant response rating (rape; [7]): 0
Rape plant response rating (rape; [8]): 0
Corn plant response rating (corn; [1]): 0
Corn plant response rating (corn; [2]): 0
Corn plant response rating (corn; [3]): 0
Plant response rating, Corn (corn; [4]): 0
Plant response rating, Corn (corn; [5]): 0
Corn plant response rating (corn; [6]): 0
Corn plant response rating (corn; [7]): 0
Corn plant response rating (corn; [8]): 0
Sugarbeets plant response rating (sugar beet; [1]): 0
Sugarbeets plant response rating (sugar beet; [2]): 0
Sugarbeets plant response rating (sugar beet; [3]): 0
Plant response rating, Sugarbeets (sugar beet; [4]): 0
Plant response rating, Sugarbeets (sugar beet; [5]): 0
Sugarbeets plant response rating (sugar beet; [6]): 0
Sugarbeets plant response rating (sugar beet; [7]): 0
Sugarbeets plant response rating (sugar beet; [8]): 0
Redroot pigweed plant response rating (pigweed; [1]): 0
Redroot pigweed plant response rating (pigweed; [2]): 0
Redroot pigweed plant response rating (pigweed; [3]): 0
Plant response rating, Redroot pigweed (pigweed; [4]): 0
Plant response rating, Redroot pigweed (pigweed; [5]): 0
Redroot pigweed plant response rating (pigweed; [6]): 0
Redroot pigweed plant response rating (pigweed; [7]): 0
Redroot pigweed plant response rating (pigweed; [8]): 0
Morningglory plant response rating (morningglory; [1]): 0
Morningglory plant response rating (morningglory; [2]): 0
Morningglory plant response rating (morningglory; [3]): 0
Plant response rating, Morningglory (morningglory; [4]): 0
Plant response rating, Morningglory (morningglory; [5]): 0
Morningglory plant response rating (morningglory; [6]): 0
Morningglory plant response rating (morningglory; [7]): 0
Morningglory plant response rating (morningglory; [8]): 0
Cocklebur plant response rating (cocklebur; [1]): 0
Cocklebur plant response rating (cocklebur; [2]): 0
Cocklebur plant response rating (cocklebur; [3]): 0
Plant response rating, Cocklebur (cocklebur; [4]): 0
Plant response rating, Cocklebur (cocklebur; [5]): 0
Cocklebur plant response rating (cocklebur; [6]): 0
Cocklebur plant response rating (cocklebur; [7]): 0
Cocklebur plant response rating (cocklebur; [8]): 0
Bedstraw plant response rating (bedstraw; [1]): 0
Bedstraw plant response rating (bedstraw; [2]): 0
Bedstraw plant response rating (bedstraw; [3]): 0
Plant response rating, Bedstraw (bedstraw; [4]): 0
Plant response rating, Bedstraw (bedstraw; [5]): 0
Bedstraw plant response rating (bedstraw; [6]): 0
Bedstraw plant response rating (bedstraw; [7]): 0
Bedstraw plant response rating (bedstraw; [8]): 0
